Results reported in PubChem BioAssay (NCI).
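Exposure lasted 48 hours, with cells grown in 96-well plates and compounds tested at five concentrations. GI50: concentration for 50% inhibition of growth. The concentration for full growth arrest is given as TGI.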

Assays:
Experiment in all cases: inhibition of tumour cell growth, NCI panel, 48 h
[1] = test system: RPMI-8226 leukemia
[2] = test system: SK-OV-3 ovarian
[3] = test system: NCI-H23 lung
[4] = test system: COLO 205 colon
[5] = test system: NCI/ADR-RES ovarian
[6] = test system: NCI-H460 lung
[7] = test system: SN12C renal
[8] = test system: RXF 393 renal
[9] = test system: OVCAR-8 ovarian
[10] = test system: CAKI-1 renal

| SMILES | TGI [1] | TGI [2] | TGI [3] | TGI [4] | TGI [5] | TGI [6] | TGI [7] | TGI [8] | TGI [9] | TGI [10] | GI50 [1] | GI50 [2] | GI50 [3] | GI50 [4] | GI50 [5] | GI50 [6] | GI50 [7] | GI50 [8] | GI50 [9] | GI50 [10] |
| --- | --- | --- | --- | --- | --- | --- | --- | --- | --- | --- | --- | --- | --- | --- | --- | --- | --- | --- | --- | --- |
| N#CC1=C(N)Nc2nc3ccccc3n2C1c1ccccc1 (stereo unspecified) | 31 µM | > 100 µM | > 100 µM | > 100 µM | > 100 µM | > 100 µM | > 100 µM | 56.3 µM | > 100 µM | > 100 µM | – | – | – | – | – | – | – | – | – | – |
| S=C1NN=C2C(=C3CCCC4C5CCCCC5N2C34)N1 (stereo unspecified) | > 100 µM | > 100 µM | > 100 µM | > 100 µM | > 100 µM | – | – | – | > 100 µM | > 100 µM | – | – | – | – | – | – | – | – | – | – |
| COc1ccc(/C=C/[N+](=O)[O-])cc1 | – | – | 59.9 µM | > 100 µM | > 100 µM | 55.3 µM | 56 µM | – | 5.9 µM | – | – | – | – | – | – | – | – | – | – | – |
| C/C(=C\COP(=O)(O)OP(=O)(O)O)CC/C=C(\C)CNc1ccc([N+](=O)[O-])cc1 | > 100 µM | > 100 µM | > 100 µM | > 100 µM | > 100 µM | > 100 µM | > 100 µM | > 100 µM | > 100 µM | > 100 µM | – | – | – | – | – | – | – | – | – | – |
| C[C@H](CCC1=NCCN1)[C@H]1CC[C@H]2[C@@H]3CC[C@@H]4C[C@H](O)CC[C@]4(C)[C@H]3CC[C@]12C | 13.4 µM | 45.3 µM | 35 µM | 3.18 µM | 39.5 µM | > 33.9 µM | 37.3 µM | 55.2 µM | 37.2 µM | 20.2 µM | – | – | – | – | – | – | – | – | – | – |
| NC(=O)c1cc(C2OC(CO)C(O)C2O)nn1-c1ccc([N+](=O)[O-])cc1 (stereo unspecified) | > 100 µM | > 100 µM | > 100 µM | > 100 µM | – | > 100 µM | > 100 µM | > 100 µM | > 100 µM | > 100 µM | – | – | – | – | – | – | – | – | – | – |
| C#C[C@@]1(O)[C@@H](CO)O[C@@H](n2cc(F)c3c(N)ncnc32)[C@@H]1O | 1.98 µM | 2.09 µM | 6.85 µM | 1.3 µM | 11.3 µM | 10.2 µM | 4.74 µM | 2.99 µM | 3.69 µM | – | 0.221 µM | 0.285 µM | 0.398 µM | 0.263 µM | 0.306 µM | 0.231 µM | 0.302 µM | 0.727 µM | 0.256 µM | – |
| COC(=O)c1nc2c3c(cccc3c1C(=O)OC)Nc1ccccc1-2 | > 100 µM | > 100 µM | > 100 µM | > 100 µM | > 100 µM | 77.9 µM | > 100 µM | > 100 µM | – | > 100 µM | – | – | – | – | – | – | – | – | – | – |
| O=C(O)C(Br)Cc1ccc2c(c1)OCO2 (stereo unspecified) | > 100 µM | > 100 µM | > 100 µM | > 100 µM | – | > 100 µM | > 100 µM | > 100 µM | – | > 100 µM | – | – | – | – | – | – | – | – | – | – |
| COc1ccc(/C(Cl)=C(\C=O)c2ccc(Cl)c(Cl)c2)cc1OC | 5.5 µM | 75.4 µM | – | 33.7 µM | – | 12.4 µM | 18.7 µM | – | 57.7 µM | 18.8 µM | – | – | – | – | – | – | – | – | – | – |
| COc1cc2c3c(c4cc(OC)c(OC)cc4c2cc1OC)[C@H](O)[C@@H]1CCCN1C3 | 0.44 µM | 1.69 µM | 1.93 µM | 0.154 µM | 2.97 µM | 0.72 µM | 1.42 µM | 1.28 µM | – | 2.3 µM | – | – | – | – | – | – | – | – | – | – |
| CSc1sc(=S)sc1SC | > 100 µM | > 100 µM | > 100 µM | > 100 µM | 54.3 µM | > 100 µM | > 100 µM | > 100 µM | > 100 µM | > 100 µM | – | – | – | – | – | – | – | – | – | – |
| COc1cc2c3c(n(C4CCNCC4)c(=O)c2cc1OC)-c1cc2c(cc1C3=O)OCO2 | 3.68 µM | 1.75 µM | 2.39 µM | 2.33 µM | 4 µM | 0.276 µM | – | – | – | 1.6 µM | 0.773 µM | 0.402 µM | 0.538 µM | 0.986 µM | 0.823 µM | 0.119 µM | – | – | – | 0.295 µM |
| Nc1nncs1 | > 5000 µM | 928 µM | > 4730 µM | > 3840 µM | > 5000 µM | 3750 µM | > 5000 µM | > 5000 µM | > 5000 µM | > 4630 µM | – | – | – | – | – | – | – | – | – | – |
| COc1ccc2c(c1)/C(=C\c1cccc(/C=C3/C(=O)Nc4ccc(OC)cc43)n1)C(=O)N2 | – | 17.3 µM | 2.6 µM | 2.04 µM | > 58.8 µM | > 24.6 µM | 4.91 µM | 2.89 µM | > 25.4 µM | 5.62 µM | – | – | – | – | – | – | – | – | – | – |
| CCOn1cc(C2=C(c3c[nH]c4ccccc34)C(=O)NC2=O)c2ccccc21 | 5.28 µM | 0.735 µM | 0.47 µM | – | < 0.01 µM | 15.4 µM | 14.8 µM | – | 20.3 µM | < 0.0306 µM | – | 0.062 µM | < 0.028 µM | < 0.0439 µM | < 0.01 µM | – | 0.765 µM | < 0.0325 µM | 0.0935 µM | < 0.0121 µM |
| COC1/C=C\OC2(C)Oc3c(C)c(O)c4c(O)c(c(CN(C)C)c(O)c4c3C2=O)NC(=O)/C(C)=C\C=C/C(C)C(O)C(C)C(O)C(C)C(OC(C)=O)C1C (stereo unspecified) | 40 µM | > 100 µM | 31.3 µM | 35.4 µM | > 100 µM | > 100 µM | 83.8 µM | > 100 µM | > 100 µM | > 100 µM | – | – | – | – | – | – | – | – | – | – |
| O=C1OC2(c3ccc(O)cc3Oc3cc(O)ccc32)c2c1c(-c1ccccc1)c(-c1ccccc1)c(-c1ccccc1)c2-c1ccccc1 | 70.2 µM | > 100 µM | – | 35.2 µM | 98.2 µM | 33.7 µM | 60.3 µM | 67.2 µM | 45.2 µM | 62.8 µM | – | – | – | – | – | – | – | – | – | – |
| CCCCCCCCCCCCCCCCOCCCOP(=O)(O)C1CCCN(O)C1=O (stereo unspecified) | 29.4 µM | 16.7 µM | 20.5 µM | 13.3 µM | 25.6 µM | 4.51 µM | 12.8 µM | 12.2 µM | 27.8 µM | 6.18 µM | 0.936 µM | 3.62 µM | 4.19 µM | 0.548 µM | 4.02 µM | 0.375 µM | 1.53 µM | 1.9 µM | 3.29 µM | 2.09 µM |
| CC1(C)N=C(N)N=C(N)N1c1cccc(OCc2cccc([N+](=O)[O-])c2)c1 | > 100 µM | > 100 µM | > 100 µM | > 100 µM | > 100 µM | 51.6 µM | > 100 µM | > 100 µM | > 100 µM | > 100 µM | – | – | – | – | – | – | – | – | – | – |
